Entries after “also recorded” stand apart in the source; their conditions may differ.
Columns and labels:
[1] = test system: OVA; assay: OVA-specific immune responses of noscapine-treated tumor survivors after OVA in CFA; type: in vivo, B6 mice; conditions: for IFNγ / cytokine production by lymph node CD4+ T cells / OVA-specific antibody responses: tumor survivors vs control mice, ELISA
Method: (FIG. 2A) antibody responses were measured by ELISA with OVA coated microtiter plates,
(FIG. 2B) IFNγ production by lymphnode cells was measured by ELlSA by comparison with recombinant IFNγ and
(FIG. 2C) CTL responses were measured using ^51Cr labeled target cells.
Untreated, control B6 mice and noscapine treated mice whose tumors regressed, were injected with OVA in CFA to test whether the tumor had induced tolerance to OVA. […] Moreover, the OVA-specific CTL response of mice that recovered from the tumor was enhanced by 10- to 30-fold compared to the response of non-tumor bearing controls (FIG. 2C) (14).

[2] = test system: OVA; assay: Immune response to OVA in CFA in mice on oral noscapine; type: in vivo, B6 mice
Method: On day 0 all mice were injected with 200 μg OVA in CFA in the foot pad. Mice were bled individually on day 18 and their sera tested for antibody to OVA by ELISA (FIG. 5A). The mice were sacrificed on day 21 and their spleen cells cultured with E.G7-OVA for 6 days and their cytolytic activity measured with ^51Cr labeled cells (FIG. 5B).
The inventors believe that the damage caused to the mitotic apparatus of dividing cells must be repaired by normal cells but not the tumor cells at the tumor suppressive doses. Alternatively, the tumor suppressive effects of Noscapine may be unrelated to the anti-mitotic effect of the drug.

[3] = test system: E.G7-OVA tumor cells; assay: Survival and tumor regression of E.G7-OVA tumor-bearing mice, noscapine in drinking water; type: in vivo, C57BL/6 mice
Method: C57BL/6 mice were injected s.c. with 2×10^6 E.G7-OVA tumor cells. Three days later, two groups received the indicated dose of noscapine in their drinking water. There were 5 mice/group. Untreated mice survived from 6 to 7 weeks after tumor inoculation. In marked contrast, the majority of the mice treated with 1.5 or 3.0 mg/ml Noscapine survived for greater than 16 weeks when the experiment was terminated.
(§1) FIGS. 3A–3I show B6 mice were injected subcutaneously with 2×10^6 E.G7-OVA tumor cells and after three days half of the mice were treated continuously with 1.5 or 3.0 mg noscapine/ml of drinking water. All of the untreated mice developed tumors and were euthanized after three weeks. […] Normal B6 mice (A–C) and mice treated for 3 months with noscapine (D–F) were euthanized.
To test whether E.G7-OVA tumor induced tolerance, tumors were ablated by treating the mice with noscapine in the drinking water beginning three days after tumor transplantation. Tumors grew in all mice that had received E.G7-OVA without noscapine.

[4] = Histology and general toxicity in noscapine-treated mice; type: in vivo, B6 mice
Method: as §1
FIGS. 4A–4D show B6 mice were treated with 1.5 mg noscapine/ml in their drinking water or acidified water, as a negative control. One week later mice were injected with OVA in CFA. Mice were sacrificed two weeks later. […] Thus, Noscapine had no detectable toxic effect on lymphoid cells that are proliferating in response to immunization. […] The response of the gut to Noscapine is one of mild irritation. […]

[5] = target: bovine brain tubulin (Bos taurus, UniProt P81947+Q6B856); assay: Microtubule assembly, turbidity at 350 nm; type: biochemical; conditions: 20 μM noscapine, G-PEM buffer, 37° C.
Chain of bovine brain tubulin (P81947 whole entry): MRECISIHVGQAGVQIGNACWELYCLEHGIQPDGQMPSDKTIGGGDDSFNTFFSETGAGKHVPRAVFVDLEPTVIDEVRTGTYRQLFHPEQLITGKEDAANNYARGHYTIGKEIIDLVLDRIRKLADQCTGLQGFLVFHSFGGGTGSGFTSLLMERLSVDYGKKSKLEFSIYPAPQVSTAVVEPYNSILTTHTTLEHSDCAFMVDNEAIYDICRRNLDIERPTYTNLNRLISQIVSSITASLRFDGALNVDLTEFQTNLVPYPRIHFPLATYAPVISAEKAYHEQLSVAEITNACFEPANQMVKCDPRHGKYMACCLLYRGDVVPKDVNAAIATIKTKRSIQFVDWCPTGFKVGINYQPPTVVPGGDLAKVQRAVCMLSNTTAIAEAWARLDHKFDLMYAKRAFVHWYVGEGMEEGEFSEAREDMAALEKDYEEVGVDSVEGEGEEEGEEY
Chain of bovine brain tubulin (Q6B856 whole entry): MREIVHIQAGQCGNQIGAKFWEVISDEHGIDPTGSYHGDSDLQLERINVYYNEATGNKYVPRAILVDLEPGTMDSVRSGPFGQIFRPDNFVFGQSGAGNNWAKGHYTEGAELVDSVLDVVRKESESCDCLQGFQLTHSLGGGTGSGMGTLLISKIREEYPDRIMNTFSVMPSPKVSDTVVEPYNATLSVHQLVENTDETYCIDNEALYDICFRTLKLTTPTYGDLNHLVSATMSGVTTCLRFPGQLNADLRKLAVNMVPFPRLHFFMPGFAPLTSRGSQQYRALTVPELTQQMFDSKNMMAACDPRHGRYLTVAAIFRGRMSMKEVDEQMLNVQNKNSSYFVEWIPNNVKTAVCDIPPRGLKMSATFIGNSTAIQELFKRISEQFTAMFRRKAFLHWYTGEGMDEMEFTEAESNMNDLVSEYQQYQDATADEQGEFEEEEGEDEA
Method: Phosphocellulose purified bovine brain tubulin was employed throughout these biophysical experiments. Fluorescence titration for determining binding constants was performed according to Peyrot, V. et al., Biochemistry 31, 11125 (1992). […], at room temperature, 2 μM tubulin in 100 mM PIPES, 2 mM EGTA, 1 mM MgCl2 was excited at 278 nm, and the fluorescence emission spectra were recorded with bandwidths […]. The fluorescence emission intensity of noscapine at this excitation wavelength was negligible and at the concentration of noscapine used it gave no appreciable inner filter effect. The concentration of noscapine was raised in increments of 0.5 μM, until the decrease in the fluorescence intensity was saturated. The value of the dissociation constant and the number of sites were obtained from Scatchard plots using the equation, r/[L]free=n/K^d−r/Kd, where r is the ratio of the concentration of bound ligand to the total protein concentration and n is the number of binding sites. […] Microtubule assembly was recorded on a spectrophotometer with thermocontroler, The cuvettes (0.4 cm path) containing 100 mM PIPES, 2 mM EGTA, 1 mM MgCl2 and 1 mM GTP (G-PEM buffer), and 20 μM noscapine/DMSO were kept at room temperature before addition of tubulin and shifting to 37° C. […] The assembly was monitored by measuring the changes in turbidity at […]. intervals. […]

[6] = test system: E.G7-OVA cells; assay: Inhibition of E.G7-OVA tumor growth, i.p. or i.g. dosing; type: in vivo, C57BL/6 mice
Method: C57BL/6 mice were injected subcutaneously in the right flank with 2×10^6 E.G7-OVA cells. Three days later, mice were injected intraperitoneally, every day for three weeks, either with 200 μl saline (n=10), or with 3 mg noscapine dissolved in 200 μl saline (n=10). Third group of mice (n=10) was fed 3 mg noscapine via intragastric (i.g.) intubation using a 1 ml syringe fitted with a 20 gauge stainless steel ball point needle. After three weeks, all mice were sacrificed by cervical dislocation. Tumors were removed and weighed. Tumor weights were individually plotted and comparisons between control and treatment groups were analyzed by the Student's t test.

With `COc1ccc2c(c1OC)C(=O)O[C@@H]2[C@H]1c2c(cc3c(c2OC)OCO3)CCN1C` [Noscapine] the “CTL responses after immunization with OVA in CFA” value ([1]; tumor survivors treated with Noscapine vs control mice, 51Cr labeled target cells) was “enhanced”, the “IFNγ / cytokine production by lymph node CD4+ T cells” value [1] was “indistinguishable from control mice” and the OVA-specific antibody responses [1] was “indistinguishable from control mice”. The “IFNγ / cytokine production by lymph node CD4+ T cells” value ([1]; listed as noscapine) was “identical”, the OVA-specific antibody responses ([1]; listed as noscapine) was “identical” and the “immune response to OVA in CFA” value ([2]; 1.5 mg noscapine/ml drinking water from day -7) was “no detectable adverse effect”. For the same compound, the primary antibody response ([2]; oral noscapine, ELISA day 18) was “did not inhibit”, the CTL response ([2]; oral noscapine, spleen cells day 21, 51Cr labeled cells) was “did not inhibit” and the tumor regression ([3]; 1.5 or 3.0 mg noscapine/ml of drinking water, continuous) was “disappeared and did not return during four months of continuous treatment; also recorded: majority of tumors in mice treated with noscapine regress”. For the same compound, the “survival after tumor inoculation” value ([3]; majority of mice, 1.5 or 3.0 mg/ml in drinking water from day 3, experiment terminated at 16 weeks) was “greater than 16 weeks”, the “histology of small intestine” value ([4]; 1.5 mg noscapine/ml drinking water vs acidified water) was “mild edema of the villi and goblet cell hyperplasia; also recorded: edema, increased frequency of goblet cells, and prominent crypt cells” and the “histology of spleen / lymph nodes” value ([4]; 1.5 mg noscapine/ml drinking water vs acidified water, immunized with OVA in CFA) was “no alterations from control mice; also recorded: no significant differences”. The liver inflammation ([4]; 3.0 mg dose of noscapine) was “few small areas of inflammation”, the “histological evidence of toxicity to the kidney, liver, or heart” value ([4]; mouse, in vivo) was “no significant histological evidence of toxicity” and the “health, body weight and appearance” value ([4]; noscapine in drinking water) was “healthy and had normal weights and appearance; also recorded: healthy and of the same weight as the control mice”. The “number of mitotic figures in the crypts of the small intestine” value ([4]; noscapine in drinking water vs control mice) was “approximately equal”, the “histology of heart, kidney and liver” value ([4]; treated for 3 months with noscapine in drinking water, H & E) was “no significant differences” and the “tubulin assembly (absorbance at 350 nm)” value [5] was “promotes tubulin assembly”. The tumor weight ([6]; 3 mg noscapine i.p. or i.g. every day for three weeks, vs saline) was “significantly reduced tumor weight” and the “tumor cell growth and apoptosis of E.G7-OVA in vivo” value ([6]; given parenterally or by gastric gavage) was “arrested tumor cell growth and induced apoptosis”.

Reference: patent US7090853B2, “Noscapine derivatives as adjuvant compositions and methods of use thereof” (Emory University, priority 1999, dated 2006)
